Measurements published in patent US20050197350A1, “Novel quinoline, tetrahydroquinazoline, and pyrimidine derivatives and methods of treatment related to the use thereof” (TAISHO PHARMACEUTICAL CO., LTD., priority 2003, published 2005).
Structures can show the parent of a compound that is named as a salt.

These molecules were tested against MCH receptor (Homo sapiens, UniProt Q99705) (assay: High throughput functional screening FLIPR/FDSS6000 (intracellular Ca2+ evoked by MCH)). Conditions: FLIPR/FDSS, antagonist activity vs 50 nM MCH; class by percent of control at 10^−7 M or IC50; read-out: class.
Assay type: cell-based
Method in brief: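 For antagonist testing, compound-treated cells (30 min, 37 °C) were stimulated with 50 nM MCH and intracellular Ca2+ followed by Fluo4 fluorescence on FLIPR/FDSS6000. Receptor was a constitutively active, non-endogenous MCH receptor; dye loading 4 μM Fluo4-AM, 1 h, 37 °C.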

IC50 [µM] | Structure (SMILES)
> 0.2 | COc1nc(N[C@H]2CC[C@@H](NC(=O)c3ccc(Cl)cc3)CC2)ncc1C [Example 3276, 4-chloro-N-{cis-4-[(4-methoxy-5-methylpyrimidin-2-yl)amino]cyclohexyl}benzamide]
< 0.05 | Cc1cc(N[C@H]2CC[C@@H](C(=O)N[C@@H](C)c3ccccc3F)CC2)nc2ccccc12 [Example 3312, cis-N-[(1S)-1-(2-fluorophenyl)ethyl]-4-[(4-methylquinolin-2-yl)amino]cyclohexanecarboxamide]
< 0.05 | Cc1cnc(NC2CCC(C(=O)N[C@H](C)c3cccc(C(F)(F)F)c3)CC2)nc1N(C)C (stereo partly drawn) [Example 3299, 4-{[4-(dimethylamino)-5-methylpyrimidin-2-yl]amino}-N-{(1R)-1-[3-(trifluoromethyl)phenyl]ethyl}cyclohexanecarboxamide]
> 0.2 | Cc1cnc(N[C@H]2CC[C@@H](NCC(=O)c3ccc(F)c(F)c3)CC2)nc1N(C)C [Example 3261, 1-(3,4-difluorophenyl)-2-[(cis-4-{[4-(dimethylamino)-5-methylpyrimidin-2-yl]amino}cyclohexyl)amino]ethanone]

Same assay, conditions: FLIPR/FDSS, antagonist activity vs 50 nM MCH; class by percent of control at 10^−7 M or IC50; table after the classification; read-out: class

IC50 [µM] | Structure (SMILES)
0.05 to 0.2 | CN(C)c1cc(N[C@H]2CC[C@@H](NCCc3ccc(Br)cc3OC(F)(F)F)CC2)nc2ccccc12 [Example 6, N^2-{cis-4-[2-(4-Bromo-2-trifluoromethoxy-phenyl)ethylamino]-cyclohexyl}-N^4,N^4-dimethyl-quinoline-2,4-diamine dihydrochloride]
0.05 to 0.2 | CN(C)c1nc(N[C@H]2CC[C@@H](CNC(=O)c3ccc(F)c(F)c3)CC2)nc2c1CCCC2 [Example 3195, N-[cis-4-(4-Dimethylamino-5,6,7,8-tetrahydro-quinazolin-2-ylamino)-cyclohexylmethyl]-3,4-difluoro-benzamide hydrochloride]
< 0.05 | Cc1cc(N(C)C)nc(N[C@H]2CC[C@@H](NC(=O)c3ccc(F)c(F)c3)CC2)n1 [Example 3127, N-[cis-4-(4-dimethylamino-C-methyl-pyrimidin-2-ylamino)-cyclohexyl]-3,4-difluoro-benzamide hydrochloride]
< 0.05 | Cc1cnc(N[C@H]2CC[C@@H](NC(=O)c3cc(F)c(F)c(F)c3)CC2)nc1N(C)C [Example 3389, N-[cis-4-(4-Dimethylamino-5-methyl-pyrimidin-2-ylamino)-cyclohexyl]-3,4,5-trifluoro-benzamide hydrochloride]
< 0.05 | O=C(N[C@H]1CC[C@@H](Nc2cc(Cl)c3ccccc3n2)CC1)c1cccnc1Oc1ccccc1 [Example 3115, N-[cis-4-(4-Chloro-quinolin-2-ylamino)-cyclohexyl]-2-phenoxy-nicotinamide hydrochloride]
< 0.05 | Cc1cc(N[C@H]2CC[C@@H](NC(=O)c3cc(F)c(F)c(F)c3)CC2)nc2ccccc12 [Example 3180, 3,4,5-Trifluoro-N-[cis-4-(4-methyl-quinolin-2-ylamino)-cyclohexyl]-benzamide hydrochloride]
> 0.2 | CN(C)c1ccnc(N[C@H]2CC[C@@H](NC(=O)Nc3cccc(Cl)c3Cl)CC2)n1 [Example 3218, 1-(2,3-Dichloro-phenyl)-3-[cis-4-(4-dimethylamino-pyrimidin-2-ylamino)-cyclohexyl]-urea hydrochloride]
< 0.05 | CN(C)c1ccnc(N[C@H]2CC[C@@H](CNC(=O)Cc3c(Cl)ccc(Cl)c3Cl)CC2)n1 [Example 3220, N-[cis-4-(4-Dimethylamino-pyrimidin-2-ylamino)-cyclohexylmethyl]-2-(2,3,6-trichloro-phenyl)-acetamide hydrochloride]
< 0.05 | Cc1cc(N[C@H]2CC[C@@H](NC(=O)c3cccnc3Oc3ccc(F)cc3)CC2)nc2ccccc12 [Example 3090, 2-(4-Fluoro-phenoxy)-N-[cis-4-(4-methyl-quinolin-2-ylamino)-cyclohexyl]-nicotinamide hydrochloride]

Same assay, conditions: FLIPR/FDSS, antagonist activity vs 50 nM MCH; representative examples; read-out: IC50

IC50 [µM] | Structure (SMILES)
0.0076 | Cc1cccc(C(=O)N[C@H]2CC[C@@H](Nc3nc(C)cc(N(C)C)n3)CC2)c1 [Example 2526, N-(cis-4-{[4-(Dimethylamino)-6-methylpyrimidin-2-yl]amino}cyclohexyl)-3-methylbenzamide trifluoroacetate]
